US20110150836A1, “METHODS OF TREATING HBV AND HCV INFECTION” (Gilead Sciences, Inc., priority 2009, published 2011)

Test system: cytokines and interferon-inducible genes
Test: mRNA expression of cytokines and interferon-inducible genes in whole blood of healthy woodchucks (real time PCR)
Assay type: in vivo
Conditions: for IDO mRNA expression in peripheral blood, Mean / IDO mRNA expression, Fold-change from T0 / IFN-a mRNA expression in peripheral blood, Mean / IFN-a mRNA expression, Fold-change from T0 / IFN-γ mRNA expression in peripheral blood, Mean / IFN-γ mRNA expression, Fold-change from T0 / IL-2 mRNA expression in peripheral blood, Mean / IL-2 mRNA expression, Fold-change from T0 / IL-6 mRNA expression in peripheral blood, Mean / IL-6 mRNA expression, Fold-change from T0 / IL-10 mRNA expression in peripheral blood, Mean / IL-10 mRNA expression, Fold-change from T0 / IL-12 mRNA expression in peripheral blood, Mean / IL-12 mRNA expression, Fold-change from T0 / MxA mRNA expression in peripheral blood, Mean / MxA mRNA expression, Fold-change from T0 / TNF-a mRNA expression in peripheral blood, Mean / TNF-a mRNA expression, Fold-change from T0 / 2′5′-OAS mRNA expression in peripheral blood, Mean / 2′5′-OAS mRNA expression, Fold-change from T0: oral 0.5 mg/kg
Description: Compound A was administered orally to adult, WHV-negative woodchucks at two different doses. Three male woodchucks received Compound A at 0.05 mg/kg and three other male woodchucks at 0.5 mg/kg. Whole blood samples (4 mls) were collected from each woodchuck prior to dosing at T0, and then at 4, 8, 12, and 24 hours post-dose using EDTA-containing collection tubes.
The induction of an immune response in woodchucks following administration of Compound A was determined by measuring the mRNA expression of cytokines and interferon-inducible genes in whole blood samples collected at different time points. Total RNA was isolated using the QIAamp RNA Blood Mini Kit (Qiagen) according to the manufacturer's specifications. RNA was eluted into 40 μl nuclease-free water and stored at −70° C. The concentration of RNA was determined spectrophotometrically at OD 260 nm. Two μg of RNA were treated with DNase I (Invitrogen) and reverse transcribed to cDNA with MultiScribe Reverse Transcriptase (Applied Biosystems) using random hexamers. Triplicates of 2 μl cDNA were amplified by real time PCR on an ABI PRISM 7000 Sequence Detection instrument (Applied Biosystems) using SYBR GREEN Master Mix (Applied Biosystems) and woodchuck-specific primers. Amplified target genes included IFN-α, IFN-γ, TNF-α, IL-2, IL-6, IL-10 IL-12, 2′5′-OAS, IDO, and MxA. Woodchuck β-actin mRNA expression was used to normalize target gene expression. Transcription levels of woodchuck cytokines and interferon-inducible genes were represented by the formula 2ΔCt, where ΔCt indicates the difference in the threshold cycle between β-actin and target gene expression. Results were further represented as a fold-change from the transcription level at T0.

## CCCCOc1nc(N)c2nc(O)n(Cc3cccc(CN4CCCC4)c3)c2n1 [Compound A, 6-amino-2-butoxy-9-(3-(pyrrolidin-1-ylmethyl)benzyl)-9H-purin-8-ol]
4 hrs
  IDO mRNA expression in peripheral blood, Mean: 22.67
  IDO mRNA expression, Fold-change from T0: 9.1 fold
  IFN-a mRNA expression in peripheral blood, Mean: 19.14
  IFN-a mRNA expression, Fold-change from T0: 3.9 fold
  IFN-γ mRNA expression in peripheral blood, Mean: 2.80
  IFN-γ mRNA expression, Fold-change from T0: 2.6 fold
  IL-2 mRNA expression in peripheral blood, Mean: 4.32
  IL-2 mRNA expression, Fold-change from T0: 2.2 fold
  IL-6 mRNA expression in peripheral blood, Mean: 21.84
  IL-6 mRNA expression, Fold-change from T0: 4.6 fold
  IL-10 mRNA expression in peripheral blood, Mean: 4.01
  IL-10 mRNA expression, Fold-change from T0: 1.5 fold
  IL-12 mRNA expression in peripheral blood, Mean: 5.74
  IL-12 mRNA expression, Fold-change from T0: 3.8 fold
  MxA mRNA expression in peripheral blood, Mean: 5.96
  MxA mRNA expression, Fold-change from T0: 3.6 fold
  TNF-a mRNA expression in peripheral blood, Mean: 43.18
  TNF-a mRNA expression, Fold-change from T0: 6.2 fold
8 hrs
  2′5′-OAS mRNA expression in peripheral blood, Mean: 41.13
  2′5′-OAS mRNA expression, Fold-change from T0: 8.3 fold
  IDO mRNA expression in peripheral blood, Mean: 30.62
  IDO mRNA expression, Fold-change from T0: 11.6 fold
  IFN-a mRNA expression in peripheral blood, Mean: 48.85
  IFN-a mRNA expression, Fold-change from T0: 10.4 fold
  IFN-γ mRNA expression in peripheral blood, Mean: 7.81
  IFN-γ mRNA expression, Fold-change from T0: 6.7 fold
  IL-2 mRNA expression in peripheral blood, Mean: 3.12
  IL-2 mRNA expression, Fold-change from T0: 2.0 fold
  IL-6 mRNA expression in peripheral blood, Mean: 18.57
  IL-6 mRNA expression, Fold-change from T0: 4.6 fold
  IL-10 mRNA expression in peripheral blood, Mean: 17.31
  IL-10 mRNA expression, Fold-change from T0: 6.6 fold
  IL-12 mRNA expression in peripheral blood, Mean: 6.86
  IL-12 mRNA expression, Fold-change from T0: 4.2 fold
  MxA mRNA expression in peripheral blood, Mean: 12.86
  MxA mRNA expression, Fold-change from T0: 7.9 fold
  TNF-a mRNA expression in peripheral blood, Mean: 31.19
  TNF-a mRNA expression, Fold-change from T0: 4.5 fold
12 hrs
  2′5′-OAS mRNA expression in peripheral blood, Mean: 884.87
  2′5′-OAS mRNA expression, Fold-change from T0: 185.6 fold
  IDO mRNA expression in peripheral blood, Mean: 89.01
  IDO mRNA expression, Fold-change from T0: 37.0 fold
  IFN-a mRNA expression in peripheral blood, Mean: 7.12
  IFN-a mRNA expression, Fold-change from T0: 1.5 fold
  IFN-γ mRNA expression in peripheral blood, Mean: 4.36
  IFN-γ mRNA expression, Fold-change from T0: 3.8 fold
  IL-6 mRNA expression in peripheral blood, Mean: 6.25
  IL-6 mRNA expression, Fold-change from T0: 1.4 fold
  IL-10 mRNA expression in peripheral blood, Mean: 14.92
  IL-10 mRNA expression, Fold-change from T0: 5.6 fold
  IL-12 mRNA expression in peripheral blood, Mean: 49.93
  IL-12 mRNA expression, Fold-change from T0: 30.1 fold
  MxA mRNA expression in peripheral blood, Mean: 71.77
  MxA mRNA expression, Fold-change from T0: 45.3 fold
  TNF-a mRNA expression in peripheral blood, Mean: 62.30
  TNF-a mRNA expression, Fold-change from T0: 9.0 fold
24 hrs
  2′5′-OAS mRNA expression in peripheral blood, Mean: 64.27
  2′5′-OAS mRNA expression, Fold-change from T0: 14.4 fold
  IDO mRNA expression in peripheral blood, Mean: 1217.20
  IDO mRNA expression, Fold-change from T0: 454.2 fold
  IFN-a mRNA expression in peripheral blood, Mean: 4.15
  IFN-a mRNA expression, Fold-change from T0: 0.9 fold
  IFN-γ mRNA expression in peripheral blood, Mean: 2.16
  IFN-γ mRNA expression, Fold-change from T0: 1.9 fold
  IL-2 mRNA expression in peripheral blood, Mean: 13.38
  IL-2 mRNA expression, Fold-change from T0: 5.9 fold
  IL-6 mRNA expression in peripheral blood, Mean: 4.75
  IL-6 mRNA expression, Fold-change from T0: 1.2 fold
  IL-10 mRNA expression in peripheral blood, Mean: 8.74
  IL-10 mRNA expression, Fold-change from T0: 3.3 fold
  IL-12 mRNA expression in peripheral blood, Mean: 11.55
  IL-12 mRNA expression, Fold-change from T0: 7.0 fold
  MxA mRNA expression in peripheral blood, Mean: 758.52
  MxA mRNA expression, Fold-change from T0: 518.8 fold
  TNF-a mRNA expression in peripheral blood, Mean: 30.71
  TNF-a mRNA expression, Fold-change from T0: 4.5 fold
Oral 0.05 and 0.5 mg/kg
  mRNA expression of IFN-α, IFN-γ, TNF-alpha, IL-2, IL-6, IL-10, IL-12, 2′5′-OAS, IDO and MxA: induced dose-dependent increases in the mRNA expression
Oral dosing
  time of maximal mRNA expression of IFN-α, IFN-γ, IL-6, and IL-10: 8 hours post-dose
  time of maximal mRNA expression of IL-2, IDO, and MxA: 24 hours post-dose
  time of maximal mRNA expression of TNF-α, IL-12, and 2′5′-OAS: 12 hours post-dose
